How the values were obtained:
Type in all cases: in vivo
[1] = tested on: Wheat; assay: Post-emergent herbicidal test; also: ranges in brackets are in %
Description: (§1) The post-emergent tests were conducted as follows:
(§2) The active ingredients are applied in spray form to two or three week old specimens of various plant species. The spray, a solution or wettable powder suspension containing the appropriate rate of active ingredient to give the desired test rate and a surfactant, is applied to the plants.

[2] = tested on: Hemp Sesbania; assay: Post-emergent herbicidal test; also: ranges in brackets are in %
Description: as §1, §2

[3] = tested on: Sorghum; assay: Post-emergent herbicidal test; also: ranges in brackets are in %
Description: as §1, §2

[4] = tested on: Crabgrass; assay: Post-emergent herbicidal test; also: ranges in brackets are in %
Description: as §1, §2

[5] = tested on: Sugarbeet; assay: Post-emergent herbicidal test; also: ranges in brackets are in %
Description: as §1, §2

[6] = tested on: Rice; assay: Post-emergent herbicidal test; also: ranges in brackets are in %
Description: as §1, §2

[7] = tested on: Soybean; assay: Post-emergent herbicidal test; also: ranges in brackets are in %
Description: as §1, §2

[8] = tested on: Wild Buckwheat; assay: Post-emergent herbicidal test; also: ranges in brackets are in %
Description: as §1, §2

[9] = tested on: Panicum Spp.; assay: Post-emergent herbicidal test; also: ranges in brackets are in %
Description: as §1, §2

[10] = tested on: Williams soybeans; assay: Soybean seed yield test (Table V)
Description: Additionally, the compound of Example Number 3 was tested as follows.
Williams soybeans were planted on 5.5 inch row spacings. The soybeans were treated at three different stages of early growth (first, second or third trifoliate opening) with a formulation of the compound of Example Number 3 containing 0.25% Tween 20 as a surfactant.

[11] = tested on: Velvetleaf; assay: Post-emergent herbicidal test; also: ranges in brackets are in %
In short: (§3)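 Two- to three-week-old plants were sprayed post-emergence with a solution or wettable powder suspension of the active ingredient at the desired test rate, with a surfactant added to the spray.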

[12] = tested on: Cocklebur; assay: Post-emergent herbicidal test; also: ranges in brackets are in %
In short: as §3

[13] = tested on: Canada Thistle; assay: Post-emergent herbicidal test; conditions: 4 WAT, 11.2 kg/h; also: ranges in brackets are in %
In short: as §3

[14] = tested on: Barnyardgrass; assay: Post-emergent herbicidal test; also: ranges in brackets are in %
In short: as §3

[15] = tested on: Yellow Nutsedge; assay: Post-emergent herbicidal test; conditions: 4 WAT, 11.2 kg/h; also: ranges in brackets are in %
In short: as §3

[16] = tested on: Lambsquarters; assay: Post-emergent herbicidal test; also: ranges in brackets are in %
In short: as §3

In the case of `COC(=O)c1ccccc1-c1cc(-c2cccc(C(F)(F)F)c2)no1` [Example 3, Methyl 2-[3-[3-(Trifluoromethyl)-Phenyl]-5-Isoxazolyl]Benzoate], the herbicidal rating ([1]; 2 WAT, 1.12 kg/h) was 1 (25-49), the herbicidal rating ([1]; 4 WAT, 5.60 kg/h) was 0 (0-24) and the herbicidal rating ([2]; 2 WAT, 1.12 kg/h) was 1 (25-49). The herbicidal rating ([2]; 4 WAT, 5.60 kg/h) was 0 (0-24), the herbicidal rating ([3]; 2 WAT, 1.12 kg/h) was 0 (0-24) and the herbicidal rating ([3]; 4 WAT, 5.60 kg/h) was 0 (0-24). The herbicidal rating ([4]; 2 WAT, 1.12 kg/h) was 0 (0-24), the herbicidal rating ([4]; 4 WAT, 5.60 kg/h) was 0 (0-24) and the herbicidal rating ([5]; 2 WAT, 1.12 kg/h) was 0 (0-24). The herbicidal rating ([5]; 4 WAT, 5.60 kg/h) was 1 (25-49), the herbicidal rating ([6]; 2 WAT, 1.12 kg/h) was 0 (0-24) and the herbicidal rating ([6]; 4 WAT, 5.60 kg/h) was 0 (0-24). The herbicidal rating ([7]; 2 WAT, 1.12 kg/h) was 1 (25-49), the herbicidal rating ([7]; 4 WAT, 5.60 kg/h) was 1 (25-49) and the herbicidal rating ([8]; 2 WAT, 1.12 kg/h) was 1 (25-49). For the same compound, the herbicidal rating ([8]; 4 WAT, 5.60 kg/h) was 1 (25-49), the herbicidal rating ([9]; 2 WAT, 1.12 kg/h) was 0 (0-24) and the herbicidal rating ([9]; 4 WAT, 5.60 kg/h) was 0 (0-24). For the same compound, the “Seed Yield” value ([10]; 0.0062 lb/acre, stage of application 2 (untreated 63.9)) was 63.6 bu/acre, the “Seed Yield” value ([10]; 0.0125 lb/acre, stage of application 1 (untreated 63.9)) was 67.4 bu/acre and the “Seed Yield” value ([10]; 0.0125 lb/acre, stage of application 2 (untreated 63.9)) was 68.2 bu/acre. For the same compound, the “Seed Yield” value ([10]; 0.0125 lb/acre, stage of application 3 (untreated 63.9)) was 65.7 bu/acre, the “Seed Yield” value ([10]; 0.0250 lb/acre, stage of application 1 (untreated 63.9)) was 62.5 bu/acre and the “Seed Yield” value ([10]; 0.0250 lb/acre, stage of application 2 (untreated 63.9)) was 64.7 bu/acre. For the same compound, the “Seed Yield” value ([10]; 0.0250 lb/acre, stage of application 3 (untreated 63.9)) was 69.9 bu/acre, the “Seed Yield” value ([10]; 0.0375 lb/acre, stage of application 1 (untreated 63.9)) was 59.6 bu/acre and the “Seed Yield” value ([10]; 0.0375 lb/acre, stage of application 2 (untreated 63.9)) was 57.5 bu/acre. The “Seed Yield” value ([10]; 0.0375 lb/acre, stage of application 3 (untreated 63.9)) was 70.3 bu/acre, the “Seed Yield” value ([10]; 0.0500 lb/acre, stage of application 2 (untreated 63.9)) was 71.3 bu/acre and the herbicidal rating ([11]; 2 WAT, 1.12 kg/h) was 1 (25-49). For the same compound, the herbicidal rating ([11]; 4 WAT, 5.60 kg/h) was 1 (25-49), the herbicidal rating ([11]; 4 WAT, 11.2 kg/h) was 2 (50-74) and the herbicidal rating ([12]; 2 WAT, 1.12 kg/h) was 1 (25-49). The herbicidal rating ([12]; 4 WAT, 5.60 kg/h) was 1 (25-49), the herbicidal rating ([12]; 4 WAT, 11.2 kg/h) was 2 (50-74) and the herbicidal rating [13] was 2 (50-74). For the same compound, the herbicidal rating ([14]; 2 WAT, 1.12 kg/h) was 0 (0-24), the herbicidal rating ([14]; 4 WAT, 5.60 kg/h) was 0 (0-24) and the herbicidal rating ([14]; 4 WAT, 11.2 kg/h) was 3 (75-99). For the same compound, the herbicidal rating [15] was 0 (0-24), the herbicidal rating ([16]; 2 WAT, 1.12 kg/h) was 1 (25-49) and the herbicidal rating ([16]; 4 WAT, 5.60 kg/h) was 1 (25-49). The herbicidal rating ([16]; 4 WAT, 11.2 kg/h) was 4 (100).
